Test results reported in ChEMBL document CHEMBL1130041, “Halogenated 4-(phenoxymethyl)piperidines as potential radiolabeled probes for sigma-1 receptors: in vivo evaluation of [123I]-1-(iodopropen-2-yl)-4-[(4-cyanophenoxy)methyl]pip eri dine” (J Med Chem, 1997).

Key:
[1] = In Vitro binding affinity for 5-hydroxytryptamine 2 receptor
[2] = species: Rattus norvegicus; experiment: Biodistribution of [123I]-label in rat blood was reported at 24 hr post injection. Value shown is %ID/g of tissue; format: ADME, organism-based; conditions: in vivo
[3] = species: Rattus norvegicus; experiment: Biodistribution of [123I]-label in rat brain was reported at 2 hr post injection. Value shown is %ID/g of tissue; format: ADME, organism-based; conditions: in vivo
[4] = species: Rattus norvegicus; experiment: Biodistribution of [123I]-label in rat brain was reported at 24 hr post injection. Value shown is %ID/g of tissue; format: ADME, organism-based; conditions: in vivo
[5] = species: Rattus norvegicus; experiment: Biodistribution of [123I]-label in rat brain was reported at 4 hr post injection. Value shown is %ID/g of tissue; format: ADME, organism-based; conditions: in vivo
[6] = species: Rattus norvegicus; experiment: Biodistribution of [123I]-label in rat heart was reported at 2 hr post injection. Value shown is %ID/g of tissue; format: ADME, organism-based; conditions: in vivo
[7] = species: Rattus norvegicus; experiment: Biodistribution of [123I]-label in rat lung was reported at 1 hr post injection. Value shown is %ID/g of tissue; format: ADME, organism-based; conditions: in vivo
[8] = species: Rattus norvegicus; experiment: Biodistribution of [123I]-label in rat lung was reported at 2 hr post injection. Value shown is %ID/g of tissue; format: ADME, organism-based; conditions: in vivo
[9] = species: Rattus norvegicus; experiment: Biodistribution of [123I]-label in rat spleen was reported at 1 hr post injection. Value shown is %ID/g of tissue; format: ADME, organism-based; conditions: in vivo
[10] = species: Rattus norvegicus; experiment: Biodistribution of [123I]-label in rat spleen was reported at 2 hr post injection. Value shown is %ID/g of tissue; format: ADME, organism-based; conditions: in vivo
[11] = species: Rattus norvegicus; experiment: Biodistribution of [123I]-label in rat spleen was reported at 24 h post injection. Value shown is %ID/g of tissue; format: ADME, organism-based; conditions: in vivo
[12] = species: Rattus norvegicus; experiment: Biodistribution of [123I]-label in rat spleen was reported at 4 hr post injection. Value shown is %ID/g of tissue; format: ADME, organism-based; conditions: in vivo
[13] = species: Rattus norvegicus; experiment: Biodistribution of [123I]-label in rat stomach was reported at 0.33 hr post injection. Value shown is %ID/g of tissue; format: ADME, organism-based; conditions: in vivo
[14] = species: Rattus norvegicus; experiment: Biodistribution of [123I]-label in rat stomach was reported at 1 h post injection. Value shown is %ID/g of tissue; format: ADME, organism-based; conditions: in vivo
[15] = species: Rattus norvegicus; experiment: Biodistribution of [123I]-label in rat stomach was reported at 2 hr post injection. Value shown is %ID/g of tissue; format: ADME, organism-based; conditions: in vivo
[16] = species: Rattus norvegicus; experiment: Distribution of [123I]-label in rat brain (cerebellum) was reported at 20 min post injection. Value shown is %ID/g of tissue; format: ADME, organism-based; conditions: in vivo
[17] = species: Rattus norvegicus; experiment: Distribution of [123I]-label in rat brain (cerebellum) was reported at 60 min post injection. Value shown is %ID/g of tissue; format: ADME, organism-based; conditions: in vivo, 1 h
[18] = species: Rattus norvegicus; experiment: Distribution of [123I]-label in rat brain (diencephalon) was reported at 20 min post injection. Value shown is %ID/g of tissue; format: ADME, organism-based; conditions: in vivo
[19] = species: Rattus norvegicus; experiment: Distribution of [123I]-label in rat brain (frontal cortex) was reported at 20 min post injection. Value shown is %ID/g of tissue; format: ADME, organism-based; conditions: in vivo
[20] = species: Rattus norvegicus; experiment: Distribution of [123I]-label in rat brain (medulla pons) was reported at 20 min post injection. Value shown is %ID/g of tissue; format: ADME, organism-based; conditions: in vivo
[21] = species: Rattus norvegicus; experiment: Biodistribution of [123I]-label in rat heart was reported at 4 hr post injection. Value shown is %ID/g of tissue; format: ADME, organism-based; conditions: in vivo
[22] = species: Rattus norvegicus; experiment: Biodistribution of [123I]-label in rat intestine was reported at 0.33 hr post injection. Value shown is %ID/g of tissue; format: ADME, organism-based; conditions: in vivo
[23] = species: Rattus norvegicus; experiment: Biodistribution of [123I]-label in rat intestine was reported at 2 hr post injection. Value shown is %ID/g of tissue; format: ADME, organism-based; conditions: in vivo
[24] = species: Rattus norvegicus; experiment: Biodistribution of [123I]-label in rat kidneys was reported at 1 h post injection. Value shown is %ID/g of tissue; format: ADME, organism-based, Kidney; conditions: in vivo
[25] = species: Rattus norvegicus; experiment: Biodistribution of [123I]-label in rat kidneys was reported at 2 hr post injection. Value shown is %ID/g of tissue; format: ADME, organism-based, Kidney; conditions: in vivo
[26] = species: Rattus norvegicus; experiment: Biodistribution of [123I]-label in rat kidneys was reported at 24 hr post injection. Value shown is %ID/g of tissue; format: ADME, organism-based, Kidney; conditions: in vivo
[27] = species: Rattus norvegicus; experiment: Biodistribution of [123I]-label in rat liver was reported at 0.33 hr post injection. Value shown is %ID/g of tissue; format: ADME, organism-based; conditions: in vivo
[28] = species: Rattus norvegicus; experiment: Biodistribution of [123I]-label in rat lung was reported at 24 hr post injection. Value shown is %ID/g of tissue; format: ADME, organism-based; conditions: in vivo
[29] = species: Rattus norvegicus; experiment: Biodistribution of [123I]-label in rat lung was reported at 4 hr post injection. Value shown is %ID/g of tissue; format: ADME, organism-based; conditions: in vivo
[30] = species: Rattus norvegicus; experiment: Biodistribution of [123I]-label in rat muscle was reported at 2 hr post injection. Value shown is %ID/g of tissue; format: ADME, organism-based; conditions: in vivo
[31] = species: Rattus norvegicus; experiment: Biodistribution of [123I]-label in rat muscle was reported at 24 hr post injection. Value shown is %ID/g of tissue; format: ADME, organism-based; conditions: in vivo
[32] = species: Rattus norvegicus; experiment: Biodistribution of [123I]-label in rat muscle was reported at 4 hr post injection. Value shown is %ID/g of tissue; format: ADME, organism-based; conditions: in vivo
[33] = species: Rattus norvegicus; experiment: Biodistribution of [123I]-label in rat brain was reported at 1 hr post injection. Value shown is %ID/organ; format: ADME, organism-based; conditions: in vivo
[34] = species: Rattus norvegicus; experiment: Distribution of [123I]-label in rat brain (midbrain) was reported at 60 min post injection. Value shown is %ID/g of tissue; format: ADME, organism-based; conditions: in vivo, 1 h

Ki [1]: > 10 µM
ID/g [2]: 0.01%
ID/g [3]: 0.91%
ID/g [4]: 0.84%
ID/g [5]: 1.07%
ID/g [6]: 0.81%
ID/g [7]: 6.35%
ID/g [8]: 3.75%
ID/g [9]: 0.92%
ID/g [10]: 0.89%
ID/g [11]: 0.87%
ID/g [12]: 0.93%
ID/g [13]: 0.46%
ID/g [14]: 0.65%
ID/g [15]: 0.3%
ID/g [16]: 1.01%
ID/g [17]: 1.09%
ID/g [18]: 1.03%
ID/g [19]: 1.28%
ID/g [20]: 0.95%
ID/g [21]: 0.67%
ID/g [22]: 0.54%
ID/g [23]: 0.84%
ID/g [24]: 1.64%
ID/g [25]: 1.3%
ID/g [26]: 0.59%
ID/g [27]: 0.33%
ID/g [28]: 0.79%
ID/g [29]: 3.14%
ID/g [30]: 0.22%
ID/g [31]: 0.09%
ID/g [32]: 0.2%
ID [33]: 1.96%
ID/g [34]: 1.17%
Compound: N#Cc1ccc(OCC2CCN(C/C=C/I)CC2)cc1
